Reference: US10119168B2, “Methods for the treatment of kidney fibrosis” (priority 2014, dated 2018)

Test system: mouse kidney
Assay: RNA-seq of kidney gene expression over time in FA nephropathy progression (Table 1)
Format: in vivo
From the text: Identification of Candidate Genes for Biomarkers of Kidney Fibrosis Through RNA-Seq. […] To select genes that are indicative of fibrosis candidates were considered from this later group that had robust upregulation (>5-fold with >100 read counts at peak) over time as fibrosis progresses. Another important criteria was the location of the protein product of the gene, either in extracellular matrix or transmembrane, to increase the chance of detecting it in the urine and use it as a biomarker(11).
(§1) RNA samples (n=3 mice/time point) were sequenced at the Bioplymers Facility at the Harvard Medical School. Libraries were prepared from 10 ng total RNA per sample using the IntegenX Apollo 324 system and NuGEN SPIA reagents. Libraries were multiplexed in groups of three per lane of a flowcell and 50 cycle, paired-end sequencing was performed on an Illumina HiSeq2000 instrument. Illumina sequence quality was surveyed with FastQC (available on the world wide web at bioinformatics.babraham.ac.uk/projects/fastqc/) to ensure suitability of library generation and sequencing for further analysis. Adapters and lower quality bases were trimmed with Cutadapt (available on the world wide web at code.google.com/p/cutadapt/), using a Phred quality cutoff of 20, and reassessed with FastQC. Trimmed reads were aligned to the Ensembl NCBIM37 Mus musculus genome build with TopHat2. Aligned reads were summarized at the gene level against the Illumina iGenomes (available on the world wide web at tophat.cbcb.umd.edu/igenomes.html) NCBIM37 Mus musculus gene annotations using HTSeq (available on the world wide web at huber.embl.de/users/anders/HTSeq/doc/overview.html). […] The full dataset is available in the NCBI GEO database with the accession number GSE65267. Raw data is accessible on the world wide web at ncbi.nlm.nih.gov/geo/query/acc.cgi?acc=GSE65267.
Mice were sacrificed at 1, 2, 3, 7 and 14 days following administration. […] All mice were sacrificed at 14 days.
as §1, with “The quantity and quality of mRNA” for “RNA samples (n=3 mice/time point)”, “assayed on an Agilent 2200 TapeStation instrument and by SYBR qPCR assay.” for “sequenced at the Bioplymers Facility at the Harvard Medical School.”, “(https://code.google.com/p/cutadapt/),” for “(available on the world wide web at code.google.com/p/cutadapt/),”

For Nc1nc2ncc(CNc3ccc(C(=O)N[C@@H](CCC(=O)O)C(=O)O)cc3)nc2c(=O)[nH]1 [FA, folic acid], the “Slco1a1 mean fold change from normal” value (Day 2) was 0.16 fold, the “Smoc2 mean fold change from normal” value (Day 2) was 0.06 fold and the “Smpdl3b mean fold change from normal” value (Day 2) was 124.22 fold. For the same compound, the “Snx31 mean fold change from normal” value (Day 2) was 0.05 fold, the “Socs1 mean fold change from normal” value (Day 2) was 53.23 fold and the “Sox4 mean fold change from normal” value (Day 2) was 13.93 fold. The “Sox9 mean fold change from normal” value (Day 2) was 49.89 fold, the “Spaca7 mean fold change from normal” value (Day 2) was 74.80 fold and the “Spink6 mean fold change from normal” value (Day 2) was 13.93 fold. For the same compound, the “Spp1 mean fold change from normal” value (Day 2) was 174.85 fold, the “Spred3 mean fold change from normal” value (Day 2) was 11.03 fold and the “Spsb1 mean fold change from normal” value (Day 2) was 13.04 fold. For the same compound, the “Spt1c3 mean fold change from normal” value (Day 2) was 0.11 fold, the “St8sia2 mean fold change from normal” value (Day 2) was 2.10 fold and the “Stil mean fold change from normal” value (Day 2) was 32.74 fold. For the same compound, the “Stk32a mean fold change from normal” value (Day 2) was 7.59 fold, the “Stra6 mean fold change from normal” value (Day 2) was 1.95 fold and the “Susd2 mean fold change from normal” value (Day 2) was 0.07 fold. For the same compound, the “Sycn mean fold change from normal” value (Day 2) was 0.07 fold, the “Synpr mean fold change from normal” value (Day 2) was 0.02 fold and the “Sytl2 mean fold change from normal” value (Day 2) was 5.53 fold. For the same compound, the “Tagln2 mean fold change from normal” value (Day 2) was 6.40 fold, the “Tbx10 mean fold change from normal” value (Day 2) was 0.10 fold and the “Timd2 mean fold change from normal” value (Day 2) was 2.97 fold. For the same compound, the “Timp1 mean fold change from normal” value (Day 2) was 194.76 fold, the “Tlr2 mean fold change from normal” value (Day 2) was 12.76 fold and the “Tmem25 mean fold change from normal” value (Day 2) was 0.34 fold. For the same compound, the “Tmem26 mean fold change from normal” value (Day 2) was 0.07 fold, the “Tmem207 mean fold change from normal” value (Day 2) was 0.02 fold and the “Tmsb10 mean fold change from normal” value (Day 2) was 18.72 fold. For the same compound, the “Tnc mean fold change from normal” value (Day 2) was 9.63 fold, the “Tnfaip3 mean fold change from normal” value (Day 2) was 3.85 fold and the “Tnfrsf23 mean fold change from normal” value (Day 2) was 7.62 fold. For the same compound, the “Top2a mean fold change from normal” value (Day 2) was 15.75 fold, the “Tpx2 mean fold change from normal” value (Day 2) was 10.97 fold and the “Tril mean fold change from normal” value (Day 2) was 0.43 fold. For the same compound, the “Tsc22d1 mean fold change from normal” value (Day 2) was 6.92 fold, the “Ttc36 mean fold change from normal” value (Day 2) was 0.10 fold and the “Ttr mean fold change from normal” value (Day 2) was 0.04 fold. The “Tyrobp mean fold change from normal” value (Day 2) was 1.65 fold, the “Ugt3a1 mean fold change from normal” value (Day 2) was 0.07 fold and the “Uhrf1 mean fold change from normal” value (Day 2) was 31.75 fold. For the same compound, the “Upp2 mean fold change from normal” value (Day 2) was 0.11 fold, the “Vcam1 mean fold change from normal” value (Day 2) was 30.80 fold and the “Vill mean fold change from normal” value (Day 2) was 0.28 fold. For the same compound, the “Vmn1r18 mean fold change from normal” value (Day 2) was 0.01 fold, the “Vmn1r19 mean fold change from normal” value (Day 2) was 0.02 fold and the “Vmn1r20 mean fold change from normal” value (Day 2) was 0.34 fold. For the same compound, the “Vmn1r-ps11 mean fold change from normal” value (Day 2) was 0.03 fold, the “Vstm2a mean fold change from normal” value (Day 2) was 0.05 fold and the “Vtcn1 mean fold change from normal” value (Day 2) was 44.16 fold. The “Vwce mean fold change from normal” value (Day 2) was 0.08 fold, the “Wfdc15b mean fold change from normal” value (Day 2) was 0.05 fold and the “Ybx2 mean fold change from normal” value (Day 2) was 0.12 fold. The “7SK RNA mean fold change from normal” value (Day 3) was 0.08 fold, the “2310042D19Rik mean fold change from normal” value (Day 3) was 0.47 fold and the “4930533I22Rik mean fold change from normal” value (Day 3) was 0.22 fold. For the same compound, the “4933417A18Rik mean fold change from normal” value (Day 3) was 0.49 fold, the “8430408G22Rik mean fold change from normal” value (Day 3) was 0.34 fold and the “9030619P08Rik mean fold change from normal” value (Day 3) was 0.02 fold. For the same compound, the “Slc2a5 mean fold change from normal” value (Day 3) was 0.21 fold, the “Slc4a1 mean fold change from normal” value (Day 3) was 0.18 fold and the “Slc5a4a mean fold change from normal” value (Day 3) was 0.51 fold. The “Slc5a12 mean fold change from normal” value (Day 3) was 0.38 fold, the “Slc6a12 mean fold change from normal” value (Day 3) was 0.26 fold and the “Slc7a13 mean fold change from normal” value (Day 3) was 0.11 fold. The “Slc28a1 mean fold change from normal” value (Day 3) was 0.18 fold, the “Slc34a1 mean fold change from normal” value (Day 3) was 0.33 fold and the “Slc34a2 mean fold change from normal” value (Day 3) was 7.59 fold. For the same compound, the “Slc34a3 mean fold change from normal” value (Day 3) was 0.09 fold, the “Slc46a3 mean fold change from normal” value (Day 3) was 0.57 fold and the “Slco1a1 mean fold change from normal” value (Day 3) was 0.19 fold. The “Smoc2 mean fold change from normal” value (Day 3) was 1.83 fold, the “Smpdl3b mean fold change from normal” value (Day 3) was 111.13 fold and the “Snx31 mean fold change from normal” value (Day 3) was 0.07 fold. For the same compound, the “Socs1 mean fold change from normal” value (Day 3) was 43.48 fold, the “Sox4 mean fold change from normal” value (Day 3) was 11.69 fold and the “Sox9 mean fold change from normal” value (Day 3) was 52.43 fold. For the same compound, the “Spaca7 mean fold change from normal” value (Day 3) was 18.32 fold, the “Spink6 mean fold change from normal” value (Day 3) was 9.16 fold and the “Spp1 mean fold change from normal” value (Day 3) was 63.01 fold. For the same compound, the “Spred3 mean fold change from normal” value (Day 3) was 8.99 fold, the “Spsb1 mean fold change from normal” value (Day 3) was 4.64 fold and the “Spt1c3 mean fold change from normal” value (Day 3) was 1.02 fold. The “St8sia2 mean fold change from normal” value (Day 3) was 10.17 fold, the “Stil mean fold change from normal” value (Day 3) was 10.68 fold and the “Stk32a mean fold change from normal” value (Day 3) was 5.33 fold. For the same compound, the “Stra6 mean fold change from normal” value (Day 3) was 8.56 fold and the “Susd2 mean fold change from normal” value (Day 3) was 0.32 fold.
